{"source": "patent US20250127787A1", "about": "“METHODS FOR TREATING PERIPHERAL NEUROPATHY” (University of Pittsburgh - Of the Commonwealth System of …, priority 2021, published 2025)", "key": {"[1]": {"tested_on": "PAC-CIPN rats", "test": "Von Frey sensory testing in PAC-CIPN rats", "type": "in vivo, rat", "details": "hindpaw footpad, paclitaxel 2 mg/kg i.p., 8-AG 5 mg/kg/day in drinking water", "method": "(§1) Animals: This study employed female Harlan Sprague Dawley (HSD) rats (3-4 mo; Envigo, Indianapolis, IN) and were divided into the following groups: 1) Control, 2) Cyclophosphamide (CYP, 75 mg/kg i.p. in saline vehicle; administered on days 0, 3 and 6 until sacrifice on day 8); 4) Paclitaxel (2 mg/kg i.p., 2 mg/kg i.p. in saline from a stock solution of 50/50 CremophorEL/ethanol); administered on days 0, 2, 4 and 6 until sacrifice on day 8; 4) 8-aminoguanine (8-AG; 5 mg/kg/day in drinking water; beginning 2 weeks prior to either CYP or PAC and continuing until sacrifice (day 8)). The dose of 8-AG was based on the experiments described above. […] All tissues (spinal cord and hindpaw epidermis) were removed from isoflurane anesthetized rats and the tissue was used for various experimental approaches as described below. At the end of tissue removal, animals were sacrificed by thoracotomy.\nVon Frey sensory testing, Control, PAC and 8-AG-treated PAC rats were placed in an elevated chamber on a wire mesh floor and after acclimatization, calibrated von Frey microfilaments were applied to determine paw withdrawal threshold (PWT, in grams). Briefly, microfilaments (Stoelting Corp, USA) were applied with different forces perpendicularly to the plantar surface of both ipsilateral and contralateral hindpaw by increasing and decreasing stimulus intensity. […]"}, "[2]": {"tested_on": "IBA-1", "test": "Microglial IBA-1 expression and activation in CYP-CIPN rats", "type": "in vivo, rat", "details": "oral 8-AG; for effect on CYP-induced increase in IBA-1 expression (microglia): Western immunoblotting", "method": "as §1\nThus, the effectiveness of 8-aminoguanine in CYP—CIPN microglial expression and activation was evaluated."}, "[3]": {"tested_on": "inosine and guanosine", "test": "Purine levels (inosine, guanosine) in CYP-CIPN rat epidermis (footpad)", "type": "in vivo", "details": "8-AG 5 mg/kg/day in drinking water", "method": "Animals. This study employed female Harlan Sprague Dawley (HSD) rats (3-4 mo; Envigo, Indianapolis, IN) and were divided into the following groups: 1) Control, 2) Cyclophosphamide (CYP, 75 mg/kg i.p. in saline vehicle; administered on days 0, 3 and 6); 3) 8-aminoguanine (8-AG; 5 mg/kg/day in drinking water; beginning 2 weeks prior to CYP and continuing until sacrifice (day 8)). The dose of 8-AG is based on our preliminary and published experiments. […] The investigation conforms to the Guide for the Care and Use of Laboratory Animals published by the US National Institutes of Health (NIH Publication No. 85-23, revised 1996). In addition, all tissues (dorsal root ganglion, spinal cord, peripheral nerves and hindpaw epidermis) were removed from isoflurane anesthetized rats and the tissue was used for various experimental approaches as described below. At the end of tissue removal, animals were sacrificed by thoracotomy."}, "[4]": {"test": "Pharmacokinetics of 8-aminoguanine: plasma disposition", "type": "in vivo", "details": "single bolus 5 mg/kg through the jugular catheter; for half-life: Sprague-Dawley, rat, plasma, intravenous, 5 mg/kg", "quoted_text": "Rats were anesthetized with urethane (Sigma-Aldrich, St. Louis, MO) at 1.2 g/kg. A continuous infusion of 0.9% sterile saline at 25 ul/min was established via a catheter inserted into the jugular vein. A second catheter to the carotid artery was established in order to collect blood samples (200 μl) which were drawn into a 1 ml syringe prefilled with 50 U heparin. Blood samples were centrifuged at 1300 g for 10 minutes and supernatant (plasma) was then quickly frozen on dry ice and stored at −80° C. until assay. Urine samples were collected by a urethral catheter, centrifuged at 416 g for 10 minutes to remove sediment, and stored as above. Baseline blood samples and urine samples were collected followed by a single bolus of 8-aminoguanine (8-AG, 5 mg/kg) administered through the jugular catheter. Blood samples were collected after 15, 30, 60, 120 and 240 minutes. Urine samples were collected at 1, 2, 4 and 6 hours.\nPurines in urine were measured by mass spectrometry using multiple reaction monitoring. Blood samples were diluted 1 to 30 with water, and heavy isotope internal standards were added to each sample. Purines were separated by reversed-phase ultra-performance liquid chromatography (Waters UPLC BEH C18 column, 1.7 μm beads; 2.1×150 mm; Milford, MA) and quantified by multiple reaction monitoring using a triple quadrupole mass spectrometer (TSQ Quantum-Ultra; ThermoFisher Scientific, San Jose, CA) with a heated electrospray ionization source. The mobile phase was a linear gradient flow rate (300 uL/min) of 1% acetic acid in water (pH, 3; mobile phase A) and 100% methanol (mobile phase B), and was delivered with a Waters Acquity ultra-performance liquid chromatographic system. The gradient (A/B) settings were: from 0 to 2 minutes, 99.6%/0.4%; from 2 to 3 minutes, to 98.0%/2.0%; from 3 to 4 minutes, to 85.0%/15.0%; from 4 to 6.5 minutes, to 99.6%/0.4%. […]"}, "[5]": {"tested_on": "superoxide dismutase (SOD1)", "test": "SOD1 expression in rat epidermis after sciatic nerve injury, Western immunoblotting", "type": "in vivo", "details": "8-AG 5 mg/kg/day in drinking water", "method": "Animals. This study employed female Harlan Sprague Dawley (HSD) rats (3-4 mo; Envigo, Indianapolis, IN) and were divided into the following groups: 1) Control, 2) Sciatic nerve crush (day 0, sacrifice on day 6); 3) 8-aminoguanine (8-AG; 5 mg/kg/day in drinking water; beginning 2 weeks prior to nerve crush and continuing until sacrifice (day 6)). The dose of 8-AG is based on the work above and published experiments. Further, the water consumption/day was tracked. […] All tissues (hindpaw epidermis) were removed from isoflurane anesthetized rats and the tissue was used for various experimental approaches as described below. At the end of tissue removal, animals were sacrificed by thoracotomy. […]"}}, "note": "Entries after “also recorded” stand apart in the source; their conditions may differ. Like-named read-outs stand apart in the source and are kept apart here."}
{"smiles": "Nc1nc2[nH]c(N)nc2c(=O)[nH]1", "note": "[8-AG, 8-Aminoguanine]", "values": [{"measurement": "effect on PAC-induced increase in sensitivity to mechanical stimuli (paw withdrawal threshold)", "setting": "[1]", "value": "restored to control values; also recorded: normalized"}, {"measurement": "effect on CYP-induced increase in IBA-1 expression (microglia)", "setting": "[2]", "value": "normalized"}, {"measurement": "effect on CYP-induced increase in IBA-1 expression (microglia)", "setting": "[2]; listed as 8-aminoguanine", "value": "reversed; also recorded: normalized"}, {"measurement": "effect on CYP-induced increase in spinal IBA-1 activation", "setting": "[2]; measured by densitometry", "value": "normalized"}, {"measurement": "effect on CYP-induced decrease in guanosine levels", "setting": "[3]", "value": "normalizes; also recorded: completely restored"}, {"measurement": "effect on CYP-induced decrease in inosine levels", "setting": "[3]", "value": "normalizes; also recorded: completely restored"}, {"measurement": "half-life", "setting": "[4]; read-out: half-life of first phase of decay (distribution from plasma into tissues) (converted)", "value": 0.38, "unit": "h"}, {"measurement": "half-life", "setting": "[4]; read-out: half-life of second phase (elimination from the body) (converted)", "value": 37, "unit": "h"}, {"measurement": "plasma disposition", "setting": "[4]; rat plasma", "value": "bi-exponential decay"}, {"measurement": "effect on sciatic nerve injury-induced decrease in SOD1 expression", "setting": "[5]", "value": "restored to control values; also recorded: normalized"}, {"measurement": "effect on sciatic nerve injury-induced decrease in SOD1 expression", "setting": "[5]; listed as 8-Aminoguanine", "value": "normalized"}]}
